Data reported in patent US8329737B2, “Benzimidazoles as selective kinase inhibitors” (YM Biosciences Australia PTY Ltd, priority 2004, dated 2012).

Each molecule was assayed against T1, Jak2 (Homo sapiens, UniProt O60674) (assay: JAK kinase assay (ELISA or Alphascreen), JAK2 kinase domain). Details: capacity to inhibit 50% of JAK activity at 20 μM, standard conditions.
T1 construct: The kinase domain of humanJAK2 was amplified from U937mRNA; His tag (from the pFastBac HTc vector; purified on nickel chelate); made in house; host or cells: baculovirus; Sf9 for virus, High Five insect cells for production
T1 sequence (O60674 849-1124 limits assumed): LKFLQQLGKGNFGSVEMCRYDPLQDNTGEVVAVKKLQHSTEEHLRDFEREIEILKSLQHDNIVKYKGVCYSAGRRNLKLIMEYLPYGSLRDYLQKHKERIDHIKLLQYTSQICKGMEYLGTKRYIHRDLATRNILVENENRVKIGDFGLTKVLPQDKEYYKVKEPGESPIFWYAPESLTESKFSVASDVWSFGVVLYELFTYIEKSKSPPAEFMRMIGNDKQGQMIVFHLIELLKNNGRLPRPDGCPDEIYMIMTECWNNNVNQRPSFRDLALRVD
Type: biochemical
Protocol: (§1) For screening purposes, compounds were diluted in 96 well plates at a concentration of 20 μM. Plates were warmed at 37° C. for 30 minutes before assay.
The kinase domain of humanJAK2 was amplified from U937mRNA using the polymerase chain reaction with the following primers: […]
JAK2 PCR products were cloned into the pFastBac HTc expression vector (Gibco®) via the Sal I and Not I sites. The JAK2 plasmid was then transformed into competent DH10Bac cells (Gibco®), and the recombinant baculovirus produced prepared for transfection into Sf9 insect cells.
Baculovirus preparations from each of the JAK family members were infected into five litres of High Five cells (Invitrogen) grown in High Five serum free medium (Invitrogen) to a cell density of approximately 1-2×10^6 cells/ml. Cells are infected with virus at a MOI of 0.8-3.0. Cells were harvested and lysed. […]
Kinase assays were performed in a 96 well capture-based ELISA assay or in 384 well Optiplates (Packard) using an Alphascreen Protein Tyrosine Kinase kit. […] In the ELISA assay tyrosine phosphorylation was quantitated following transfer to an avidin coated ELISA plate using peroxidase-linked anti-phospho-tyrosine antibody PY20. […] The ELISA plates were read on a BMG Fluorostar, the Alphascreen plates were read on a Packard Fusion Alpha. […]
For C=CC(=O)Nc1ccc2ncn(-c3cncc(N[C@@H](C)c4ccccc4)n3)c2c1 [N-[1-(6-([(1S)-1-Phenylethyl]amino]pyrazin-2-yl)-1H-benzimidazol-6-yl)acrylamide], the Jak2 was “+ (Compounds that exhibited a capacity to inhibit 50% of JAK activity at a concentration of 20 μM (measured under standard conditions, see Methods), are designated as “+”)”.

Each molecule was assayed against T2, Jak3 (Homo sapiens, UniProt P52333) (assay: JAK kinase assay (ELISA or Alphascreen), JAK3 kinase domain). Details: after 20 minute incubation with enzyme (prior to addition of ATP); read-out: apparent “IC50”.
T2 construct: The kinase domain of humanJAK3 was amplified from U937mRNA; His tag (from the pFastBac HTb vector; purified on nickel chelate); made in house; host or cells: baculovirus; Sf9 for virus, High Five insect cells for production
T2 sequence (P52333 822-1111 limits assumed): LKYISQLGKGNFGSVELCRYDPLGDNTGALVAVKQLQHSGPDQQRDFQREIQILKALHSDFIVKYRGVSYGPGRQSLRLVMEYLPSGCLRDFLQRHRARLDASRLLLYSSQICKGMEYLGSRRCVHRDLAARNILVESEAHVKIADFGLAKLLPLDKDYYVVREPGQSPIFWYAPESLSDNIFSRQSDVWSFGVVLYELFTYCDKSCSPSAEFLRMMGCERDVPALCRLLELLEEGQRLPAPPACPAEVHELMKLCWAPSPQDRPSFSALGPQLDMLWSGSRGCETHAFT
Type: biochemical
Protocol: as §1
The kinase domain of humanJAK3 was amplified from U937mRNA using the polymerase chain reaction with the following primers: […]
JAK3 PCR products were cloned into the pFastBac HTb expression vector (Gibco®) via the Xho I and Kpn I sites. The JAK3 plasmid was then transformed into competent DH10Bac cells (Gibco®), and the recombinant baculovirus produced prepared for transfection into Sf9 insect cells.
Baculovirus preparations from each of the JAK family members were infected into five litres of High Five cells (Invitrogen) grown in High Five serum free medium (Invitrogen) to a cell density of approximately 1-2×10^6 cells/ml. Cells are infected with virus at a MOI of 0.8-3.0. Cells were harvested and lysed. JAK kinase domains were purified by affinity chromatography on a Probond (Invitrogen) nickel chelate affinity column.
Kinase assays were performed in a 96 well capture-based ELISA assay or in 384 well Optiplates (Packard) using an Alphascreen Protein Tyrosine Kinase kit. In either case using approximately 1.5 μg of affinity purified PTK domain in the presence of 50 mM HEPES, pH 7.5, 10 mM MgCl2, 150 mM NaCl and 10 μM-1 mM ATP. The biotinylated substrate biotin-EGPWLEEEEEAYGWMDF-NH2 (SEQ ID NO:9) (final concentration 5 μM) was used as substrate. In the ELISA assay tyrosine phosphorylation was quantitated following transfer to an avidin coated ELISA plate using peroxidase-linked anti-phospho-tyrosine antibody PY20. In the Alphascreen assay, Alphascreen phosphotyrosine acceptor beads followed by streptavidin donor beads were added under subdued light. The ELISA plates were read on a BMG Fluorostar, the Alphascreen plates were read on a Packard Fusion Alpha. […] Inhibitors were added in aqueous DMSO, with DMSO concentrations never exceeding 1%.
C=CC(=O)Nc1ccc2ncn(-c3cncc(NC(C)(C)C)n3)c2c1 [Example 20, N-{1-[6-(tert-Butylamino)pyrazin-2-yl]-1-H-benzimidazol-6-yl}acrylamide] was tested, and the IC50 was roughly 40 nM.

Same assay, conditions: after 90 min pre-incubation; read-out: apparent “IC50”
C=CC(=O)Nc1ccc2ncn(-c3cncc(NC(C)(C)C)n3)c2c1 [Example 20, N-{1-[6-(tert-Butylamino)pyrazin-2-yl]-1-H-benzimidazol-6-yl}acrylamide] gave an IC50 of 7 nM.

Same assay, conditions: capacity to inhibit 50% of JAK activity at 20 μM, standard conditions
With C=CC(=O)Nc1ccc2ncn(-c3cncc(N[C@@H](C)CC)n3)c2c1 the inhibition at 20 µM was greater than 50%. Molecule C#CC(=O)Nc1ccc2ncn(-c3cncc(NC(C)(C)C)n3)c2c1 has an inhibition at 20 µM greater than 50%. C=CC(=O)Nc1ccc2ncn(-c3cncc(N[C@H](C)CC)n3)c2c1 showed an inhibition at 20 µM greater than 50%. In the case of C=CC(=O)Nc1ccc2ncn(-c3cncc(NCC4CC4)n3)c2c1, the inhibition at 20 µM is reported as greater than 50%. C=C(C)C(=O)Nc1ccc2ncn(-c3cncc(NC(C)(C)C)n3)c2c1 was tested, and the inhibition at 20 µM was greater than 50%. With C=CC(=O)Nc1ccc2ncn(-c3cncc(-c4ccncc4)n3)c2c1 the inhibition at 20 µM was greater than 50%. C=CC(=O)Nc1ccc2ncn(-c3cncc(N(C)C)n3)c2c1 gave an inhibition at 20 µM greater than 50%. In the case of C=CC(=O)Nc1ccc2ncn(-c3cncc(-c4cccnc4)n3)c2c1, the inhibition at 20 µM is reported as greater than 50%. Work on C=CC(=O)Nc1ccc2ncn(-c3cncc(N4CCCC4)n3)c2c1 yielded an inhibition at 20 µM greater than 50%. In the case of C=CC(=O)Nc1ccc2ncn(-c3cncc(-c4ccc(C)o4)n3)c2c1, the inhibition at 20 µM is reported as greater than 50%. Work on C=CC(=O)Nc1ccc2ncn(-c3cncc(N4CCCCC4)n3)c2c1 yielded an inhibition at 20 µM greater than 50%. C=CC(=O)Nc1ccc2ncn(-c3cncc(N(C)C(C)C)n3)c2c1 gave an inhibition at 20 µM greater than 50%. Molecule C=CC(=O)Nc1ccc2ncn(-c3cncc(N[C@@H](C)c4ccccc4)n3)c2c1 [N-[1-(6-([(1S)-1-Phenylethyl]amino]pyrazin-2-yl)-1H-benzimidazol-6-yl)acrylamide] has an inhibition at 20 µM greater than 50%. In the case of C=CC(=O)Nc1ccc2ncn(-c3cncc(Nc4ccccc4)n3)c2c1 [N-[1-(6-Anilinopyrazin-2-yl)-1H-benzimidazol-6-yl]acrylamide], the Jak3 is reported as “+ (Compounds that exhibited a capacity to inhibit 50% of JAK activity at a concentration of 20 μM (measured under standard conditions, see Methods), are designated as “+”)”. Work on C=CC(=O)Nc1ccc2ncn(-c3cncc(Cl)n3)c2c1 [N-[1-(6-Chloropyrazin-2-yl)-1H-benzimidazol-6-yl]acrylamide] yielded an inhibition at 20 µM greater than 50%. In the case of C=CC(=O)Nc1ccc2ncn(-c3cncc(-c4ccccc4)n3)c2c1 [N-[1-(6-Phenylpyrazin-2-yl)-1H-benzimidazol-6-yl]acrylamide], the inhibition at 20 µM is reported as greater than 50%. C=CC(=O)Nc1ccc2ncn(-c3cncc(-c4ccsc4)n3)c2c1 [N-[1-(6-Thien-3-ylpyrazin-2-yl)-1H-benzimidazol-6-yl]acrylamide] was tested, and the inhibition at 20 µM was greater than 50%. C=CC(=O)Nc1ccc2ncn(-c3cncc(N4CCOCC4)n3)c2c1 [N-[1-(6-morpholin-4-ylpyrazin-2-yl)-1H-benzimidazol-6-yl]acrylamide] was tested, and the inhibition at 20 µM was greater than 50%. With C=CC(=O)Nc1ccc2ncn(-c3cncc(-c4cn[nH]c4)n3)c2c1 [N-{1-[6-(1H-Pyrazol-4-yl)pyrazin-2-yl]-1H-benzimidazol-6-yl}acrylamide] the inhibition at 20 µM was greater than 50%. C=CC(=O)Nc1ccc2ncn(-c3cncc(-c4ccc(F)c(Cl)c4)n3)c2c1 [N-{1-[6-(3-Chloro-4-fluorophenyl)pyrazin-2-yl]-1H-benzimidazol-6-yl}acrylamide] gave an inhibition at 20 µM greater than 50%. Work on C=CC(=O)Nc1ccc2ncn(-c3cncc(N4CCN(C)CC4)n3)c2c1 [N-{1-[6-(4-Methylpiperazin-1-yl)pyrazin-2-yl]-1H-benzimidazol-6-yl}acrylamide] yielded an inhibition at 20 µM greater than 50%. C=CC(=O)Nc1ccc2ncn(-c3cncc(NC(C)C)n3)c2c1 [N-{1-[6-(Isopropylamino)pyrazin-2-yl]-1H-benzimidazol-6-yl]acrylamide] gave an inhibition at 20 µM greater than 50%. Molecule C=CC(=O)Nc1ccc2ncn(-c3cncc(NC)n3)c2c1 [N-{1-[6-(Methylamino)pyrazin-2-yl]-1H-benzimidazol-6-yl}acrylamide] has an inhibition at 20 µM greater than 50%. With C=CC(=O)Nc1ccc2ncn(-c3cncc(NC(C)(C)C)n3)c2c1 [drawing 98] the inhibition at 20 µM was greater than 50%.
